Source: ChEMBL document CHEMBL1144662, “Requirement of beta-alanine components in sequence-specific DNA alkylation by pyrrole-imidazole conjugates with seven-base pair recognition” (Bioorg Med Chem, 2008)
Active and inactive are the calls of the source. The rule behind the calls is not given here.

Tests used:
[1] = Alkylation of plasmid DNA at 5'-ACAACCA-3' site in 5'-Texas Red labeled 202-bp DNA fragment after 15 hrs
[2] = Alkylation of plasmid DNA at 5'-ACTACCA-3' site in 5'-Texas Red labeled 202-bp DNA fragment after 15 hrs
[3] = Alkylation of plasmid DNA in 5'-Texas Red labeled 202-bp DNA fragment upto 5 uM after 15 hrs
[4] = Alkylation of plasmid DNA at 5'-AGCTCCA-3' site in 5'-Texas Red labeled 202-bp DNA fragment after 15 hrs
[5] = Alkylation of plasmid DNA at 5'-AGCACCA-3' site in 5'-Texas Red labeled 202-bp DNA fragment after 15 hrs

Activity [1] | Activity [2] | Activity [3] | Activity [4] | Activity [5] | Structure (SMILES)
Active | Active |  |  |  | CC(=O)Nc1cn(C)c(C(=O)Nc2cn(C)c(C(=O)Nc3cc(C(=O)NCCC(=O)Nc4cn(C)c(C(=O)NCCCC(=O)Nc5cc(C(=O)NCCC(=O)Nc6cc(C(=O)Nc7ccc8[nH]c(C(=O)N9CC(CCl)c%10c9cc(O)c9ccccc%109)cc8c7)n(C)c6)n(C)c5)n4)n(C)c3)n2)n1 (stereo unspecified)
Active | Active |  |  |  | CC(=O)Nc1cn(C)c(C(=O)Nc2cn(C)c(C(=O)Nc3cc(C(=O)Nc4cc(C(=O)Nc5cn(C)c(C(=O)NCCCC(=O)Nc6cc(C(=O)Nc7cc(C(=O)Nc8cc(C(=O)Nc9ccc%10[nH]c(C(=O)N%11CC(CCl)c%12c%11cc(O)c%11ccccc%12%11)cc%10c9)n(C)c8)n(C)c7)n(C)c6)n5)n(C)c4)n(C)c3)n2)n1 (stereo unspecified)
Active | Active |  |  |  | CC(=O)Nc1cn(C)c(C(=O)Nc2cn(C)c(C(=O)Nc3cc(C(=O)NCCC(=O)Nc4cn(C)c(C(=O)NCCCC(=O)Nc5cc(C(=O)Nc6cc(C(=O)Nc7cc(C(=O)Nc8ccc9[nH]c(C(=O)N%10CC(CCl)c%11c%10cc(O)c%10ccccc%11%10)cc9c8)n(C)c7)n(C)c6)n(C)c5)n4)n(C)c3)n2)n1 (stereo unspecified)
 |  | inactive |  |  | CC(=O)Nc1cn(C)c(C(=O)Nc2cn(C)c(C(=O)Nc3cc(C(=O)Nc4cn(C)c(C(=O)Nc5cc(C(=O)NCCCC(=O)Nc6cn(C)c(C(=O)Nc7cc(C(=O)NCCC(=O)Nc8ccc9[nH]c(C(=O)N%10CC(CCl)c%11c%10cc(O)c%10ccccc%11%10)cc9c8)n(C)c7)n6)n(C)c5)n4)n(C)c3)n2)n1 (stereo unspecified)
 |  |  | Active | Active | CC(=O)Nc1cn(C)c(C(=O)Nc2cn(C)c(C(=O)NCCC(=O)Nc3cn(C)c(C(=O)Nc4cc(C(=O)NCCCC(=O)Nc5cn(C)c(C(=O)Nc6cc(C(=O)NCCC(=O)Nc7ccc8[nH]c(C(=O)N9CC(CCl)c%10c9cc(O)c9ccccc%109)cc8c7)n(C)c6)n5)n(C)c4)n3)n2)n1 (stereo unspecified)
 |  |  | Active | Active | CC(=O)Nc1cn(C)c(C(=O)Nc2cn(C)c(C(=O)NCCC(=O)Nc3cn(C)c(C(=O)Nc4cc(C(=O)NCCCC(=O)Nc5cn(C)c(C(=O)Nc6cc(C(=O)Nc7cc(C(=O)Nc8ccc9[nH]c(C(=O)N%10CC(CCl)c%11c%10cc(O)c%10ccccc%11%10)cc9c8)n(C)c7)n(C)c6)n5)n(C)c4)n3)n2)n1 (stereo unspecified)
